We go through 23 compounds from patent publication US8471005B2 (Cephalon, Inc., priority 2008, dated 2013).

Each structure is given as a SMILES string.

One assay addresses T1, JAK2 (Homo sapiens, UniProt O60674).
T1 construct: host or cells: baculovirus expression system
The assay is described as follows: Recombinant Human JAK2 Kinase Assay (TRF). The settings on record: JAK2 Kinase Inhibition; read-out: JAK2 Potency. It counts as biochemical. The procedure, abridged: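 TRF read-out: Eu-N1 PY100 anti-phosphotyrosine antibody detects product. Enzyme is baculovirus-expressed JAK2 at 15 ng/ml; substrate is a biotinyl 15-mer peptide bound to Neutravidin-coated wells. Buffer 20 mM HEPES pH 7.2, 0.2 μM ATP, 1 mM MnCl2, 0.1% BSA, 2.5% DMSO final; 20 min, RT.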

In a further assay the target is T2, ALK (Homo sapiens, UniProt Q9UM73).
T2 construct: host or cells: baculovirus expression system
T2 sequence (Q9UM73 19-1620): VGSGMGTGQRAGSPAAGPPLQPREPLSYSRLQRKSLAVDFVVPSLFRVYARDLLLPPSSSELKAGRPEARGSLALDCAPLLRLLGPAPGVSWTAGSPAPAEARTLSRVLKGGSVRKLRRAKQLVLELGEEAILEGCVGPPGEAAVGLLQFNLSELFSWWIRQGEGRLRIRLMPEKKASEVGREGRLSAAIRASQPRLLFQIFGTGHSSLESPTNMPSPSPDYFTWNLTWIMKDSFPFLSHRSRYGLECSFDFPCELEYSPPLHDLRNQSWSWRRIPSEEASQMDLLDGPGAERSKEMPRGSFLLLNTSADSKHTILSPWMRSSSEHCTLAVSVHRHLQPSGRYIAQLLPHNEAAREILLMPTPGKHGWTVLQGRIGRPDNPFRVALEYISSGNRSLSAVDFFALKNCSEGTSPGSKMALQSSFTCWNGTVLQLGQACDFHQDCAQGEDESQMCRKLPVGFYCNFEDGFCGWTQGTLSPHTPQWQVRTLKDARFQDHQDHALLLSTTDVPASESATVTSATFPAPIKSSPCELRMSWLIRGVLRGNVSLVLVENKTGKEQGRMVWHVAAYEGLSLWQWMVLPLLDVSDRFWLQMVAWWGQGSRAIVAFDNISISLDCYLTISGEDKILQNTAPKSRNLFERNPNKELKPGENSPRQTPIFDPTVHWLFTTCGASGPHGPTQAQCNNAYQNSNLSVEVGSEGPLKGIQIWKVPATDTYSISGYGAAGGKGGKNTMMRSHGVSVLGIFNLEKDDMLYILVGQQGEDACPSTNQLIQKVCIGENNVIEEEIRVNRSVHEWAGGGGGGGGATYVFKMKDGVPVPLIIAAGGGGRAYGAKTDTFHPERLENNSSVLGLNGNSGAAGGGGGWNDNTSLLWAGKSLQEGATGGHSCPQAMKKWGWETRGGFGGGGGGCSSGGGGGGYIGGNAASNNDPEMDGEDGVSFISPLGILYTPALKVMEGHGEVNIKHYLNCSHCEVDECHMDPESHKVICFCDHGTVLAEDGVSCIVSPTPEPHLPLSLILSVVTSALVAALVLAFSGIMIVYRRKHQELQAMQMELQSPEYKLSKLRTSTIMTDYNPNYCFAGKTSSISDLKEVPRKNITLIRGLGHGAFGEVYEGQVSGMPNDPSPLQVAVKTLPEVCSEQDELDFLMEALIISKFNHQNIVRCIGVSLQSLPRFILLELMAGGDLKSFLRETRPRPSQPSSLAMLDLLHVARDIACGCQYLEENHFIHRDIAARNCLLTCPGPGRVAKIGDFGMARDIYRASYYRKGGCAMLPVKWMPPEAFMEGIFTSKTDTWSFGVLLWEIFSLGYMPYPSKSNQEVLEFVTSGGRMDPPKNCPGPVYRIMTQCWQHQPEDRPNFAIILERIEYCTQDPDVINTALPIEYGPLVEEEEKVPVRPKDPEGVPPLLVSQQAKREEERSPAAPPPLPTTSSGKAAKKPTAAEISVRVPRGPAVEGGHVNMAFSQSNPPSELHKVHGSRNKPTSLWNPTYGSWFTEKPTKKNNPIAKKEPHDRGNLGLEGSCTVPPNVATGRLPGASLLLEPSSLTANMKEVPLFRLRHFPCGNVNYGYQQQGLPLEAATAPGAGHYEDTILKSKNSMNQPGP
Briefly: ALK Kinase Assay (ELISA/TRF, PLC-γ substrate). It counts as biochemical. As to conditions: ALK Kinase Inhibition; read-out: ALK Potency. The procedure, abridged:
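First, plates are coated with substrate (phospholipase C-γ, 10 μg/mL, TBS). Next, 30 ng/ml ALK initiates phosphorylation for 15 min at 37° C. Then Eu-N1 PT66 antibody is added for detection, and a nonlinear dose-response fit of percent inhibition yields IC50.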
Background: ELISA stands for enzyme-linked immunosorbent assay.

T1 sequence (O60674 whole entry): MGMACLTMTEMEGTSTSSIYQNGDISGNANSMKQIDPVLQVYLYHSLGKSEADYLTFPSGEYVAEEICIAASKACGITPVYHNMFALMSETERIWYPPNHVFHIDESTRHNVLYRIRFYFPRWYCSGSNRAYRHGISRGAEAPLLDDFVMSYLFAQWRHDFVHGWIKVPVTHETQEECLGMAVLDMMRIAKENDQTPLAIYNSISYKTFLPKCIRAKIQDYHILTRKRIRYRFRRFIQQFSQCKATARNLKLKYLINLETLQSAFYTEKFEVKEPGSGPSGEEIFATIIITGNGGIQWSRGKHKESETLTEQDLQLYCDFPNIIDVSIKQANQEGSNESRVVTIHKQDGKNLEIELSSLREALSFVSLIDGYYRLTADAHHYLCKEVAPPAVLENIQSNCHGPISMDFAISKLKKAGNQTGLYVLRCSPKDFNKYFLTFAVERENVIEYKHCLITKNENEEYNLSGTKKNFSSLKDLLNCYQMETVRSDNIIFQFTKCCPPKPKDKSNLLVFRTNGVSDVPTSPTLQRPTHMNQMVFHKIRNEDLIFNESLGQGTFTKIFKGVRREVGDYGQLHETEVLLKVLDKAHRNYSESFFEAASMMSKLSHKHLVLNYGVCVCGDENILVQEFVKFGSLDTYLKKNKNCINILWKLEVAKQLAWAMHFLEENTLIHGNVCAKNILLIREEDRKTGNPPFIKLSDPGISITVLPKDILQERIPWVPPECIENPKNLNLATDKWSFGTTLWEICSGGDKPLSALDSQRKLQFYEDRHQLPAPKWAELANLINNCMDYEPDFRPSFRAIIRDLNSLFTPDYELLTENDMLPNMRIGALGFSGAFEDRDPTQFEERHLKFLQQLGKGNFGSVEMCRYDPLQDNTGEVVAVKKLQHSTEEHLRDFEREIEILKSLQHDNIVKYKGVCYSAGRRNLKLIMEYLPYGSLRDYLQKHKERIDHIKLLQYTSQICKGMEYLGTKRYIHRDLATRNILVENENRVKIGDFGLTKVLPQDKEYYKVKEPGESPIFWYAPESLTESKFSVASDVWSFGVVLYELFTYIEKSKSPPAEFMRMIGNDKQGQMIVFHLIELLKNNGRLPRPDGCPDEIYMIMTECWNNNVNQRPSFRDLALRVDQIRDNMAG

As to `CN1CCN(C(=O)C2CCCN(c3ccc(Nc4ncc5ccc(-c6ccc(S(C)(=O)=O)cc6)n5n4)cc3)C2)CC1` (stereo not shown) [Example 446, (1-{4-[7-(4-Methanesulfonyl-phenyl)-pyrrolo[2,1-f][1,2,4]triazin-2-ylamino]-phenyl}-piperidin-3-yl)-(4-methyl-piperazin-1-yl)-methanone], the IC50 is < 0.1 µM on JAK2 and 1 to 10 µM on ALK.
Taken in the same sequence, the figures for `CN1CCN(C(=O)C2CCCN(c3ccc(Nc4ncc5ccc(-c6ccccc6N(C)S(C)(=O)=O)n5n4)cc3)C2)CC1` (stereo not shown) [Example 447, N-Methyl-N-[2-(2-{4-[3-(4-methyl-piperazine-1-carbonyl)-piperidin-1-yl]-phenylamino}-pyrrolo[2,1-f][1,2,4]triazin-7-yl)-phenyl]-methanesulfonamide] were < 0.1 µM and < 0.1 µM.
Taken in the same sequence, the figures for `CN1CCN(C(=O)C2CCN(c3ccc(Nc4ncc5ccc(-c6ccccc6N(C)S(C)(=O)=O)n5n4)cc3)CC2)CC1` [Example 448, N-Methyl-N-[2-(2-{4-[4-(4-methyl-piperazine-1-carbonyl)-piperidin-1-yl]-phenylamino}-pyrrolo[2,1-f][1,2,4]triazin-7-yl)-phenyl]-methanesulfonamide] were < 0.1 µM and < 0.1 µM.
With `COc1ccccc1-c1ccc2cnc(NC(=O)Nc3ccc(N4CCN(C)CC4)cc3)nn12` [Example 449, 1-[7-(2-Methoxy-phenyl)-pyrrolo[2,1-f][1,2,4]triazin-2-yl]-3-[4-(4-methyl-piperazin-1-yl)-phenyl]-urea], the IC50 at JAK2 is < 0.1 µM; on ALK, 0.1 to 1 µM.
In the same order, the values of `CN1CCN(CC2CCN(c3ccc(Nc4ncc5ccc(-c6ccccc6N(C)S(C)(=O)=O)n5n4)cc3)CC2)CC1` [Example 450, N-Methyl-N-[2-(2-{4-[4-(4-methyl-piperazin-1-ylmethyl)-piperidin-1-yl]-phenylamino}-pyrrolo[2,1-f][1,2,4]triazin-7-yl)-phenyl]-methanesulfonamide] are < 0.1 µM and < 0.1 µM.
In the same order, the values of `COc1ccccc1-c1ccc2cnc(Nc3ccc(N4CCC(CN5CCN(C)CC5)CC4)cc3)nn12` [Example 451, [7-(2-Methoxy-phenyl)-pyrrolo[2,1-f][1,2,4]triazin-2-yl]-{4-[4-(4-methyl-piperazin-1-ylmethyl)-piperidin-1-yl]-phenyl}-amine] are < 0.1 µM and < 0.1 µM.
In the same order, the values of `CN1CCN(CC2CCN(c3ccc(Nc4ncc5ccc(-c6ccc(S(C)(=O)=O)cc6)n5n4)cc3)CC2)CC1` [Example 452, [7-(4-Methanesulfonyl-phenyl)-pyrrolo[2,1-f][1,2,4]triazin-2-yl]-{4-[4-(4-methyl-piperazin-1-ylmethyl)-piperidin-1-yl]-phenyl}-amine] are < 0.1 µM and 0.1 to 1 µM.
Regarding `COc1cc(N2CCC(N3CCOCC3)CC2)ccc1Nc1ncc2ccc(-c3ccccc3NC(C)=O)n2n1` [Example 453, N-(2-{2-[2-Methoxy-4-(4-morpholin-4-yl-piperidin-1-yl)-phenylamino]-pyrrolo[2,1-f][1,2,4]triazin-7-yl}-phenyl)-acetamide], the IC50 was 1 to 10 µM on JAK2 and 0.1 to 1 µM on ALK.
For the compound `CC(=O)Nc1ccccc1-c1ccc2cnc(Nc3ccc(N4CCC(N5CCOCC5)CC4)cc3)nn12` [Example 454, N-(2-{2-[4-(4-Morpholin-4-yl-piperidin-1-yl)-phenylamino]-pyrrolo[2,1-f][1,2,4]triazin-7-yl}-phenyl)-acetamide], the IC50 at JAK2 is < 0.1 µM; on ALK, 0.1 to 1 µM.
As to `CN1CCN(CC2CCCN(c3ccc(Nc4ncc5ccc(-c6ccccc6N(C)S(C)(=O)=O)n5n4)cc3)C2)CC1` (stereo not shown) [Example 455, N-Methyl-N-[2-(2-{4-[3-(4-methyl-piperazin-1-ylmethyl)-piperidin-1-yl]-phenylamino}-pyrrolo[2,1-f][1,2,4]triazin-7-yl)-phenyl]-methanesulfonamide], the IC50 on JAK2 and at ALK was < 0.1 µM each time.
As to `COc1ccccc1-c1ccc2cnc(Nc3ccc(N4CCCC(CN5CCN(C)CC5)C4)cc3)nn12` (stereo not shown) [Example 456, [7-(2-Methoxy-phenyl)-pyrrolo[2,1-f][1,2,4]triazin-2-yl]-{4-[3-(4-methyl-piperazin-1-ylmethyl)-piperidin-1-yl]-phenyl}-amine], the IC50 at JAK2 and on ALK was < 0.1 µM each time.
`CN1CCN(CC2CCCN(c3ccc(Nc4ncc5ccc(-c6ccc(S(C)(=O)=O)cc6)n5n4)cc3)C2)CC1` (stereo not shown) [Example 457, [7-(4-Methanesulfonyl-phenyl)-pyrrolo[2,1-f][1,2,4]triazin-2-yl]-{4-[3-(4-methyl-piperazin-1-ylmethyl)-piperidin-1-yl]-phenyl}-amine]: the IC50 at JAK2 was < 0.1 µM; at ALK, 0.1 to 1 µM.
Taken in the same sequence, the figures for `COc1cc(N2CCC(C(=O)N3CCN(C)CC3)CC2)ccc1Nc1ncc2ccc(-c3ccccc3OC)n2n1` [Example 458, (1-{3-Methoxy-4-[7-(2-methoxy-phenyl)-pyrrolo[2,1-f][1,2,4]triazin-2-ylamino]-phenyl}-piperidin-4-yl)-(4-methyl-piperazin-1-yl)-methanone] were 0.1 to 1 µM and < 0.1 µM.
As for `COc1cc(N2CCC(C(=O)N3CCN(C)CC3)CC2)ccc1Nc1ncc2ccc(-c3ccccc3N(C)S(C)(=O)=O)n2n1` [Example 459, N-[2-(2-{2-Methoxy-4-[4-(4-methyl-piperazine-1-carbonyl)-piperidin1-yl]-phenylamino}-pyrrolo[2,1-f][1,2,4]triazin-7-yl)-phenyl]-N-methyl-methanesulfonamide], the IC50 at JAK2 was 0.1 to 1 µM; on ALK, < 0.1 µM.
Taken in the same sequence, the figures for `COc1cc(N2CCC[C@H](C(=O)N3CCN(C)CC3)C2)ccc1Nc1ncc2ccc(-c3ccccc3N(C)S(C)(=O)=O)n2n1` [Example 460, N-[2-(2-{2-Methoxy-4-[(S)-3-(4-methyl-piperazine-1-carbonyl)-piperidin-1-yl]-phenylamino}-pyrrolo[2,1-f][1,2,4]triazin-7-yl)-phenyl]-N-methyl-methanesulfonamide] were 0.1 to 1 µM and < 0.1 µM.
For the compound `COc1cc(N2CCC[C@H](C(=O)N3CCN(C)CC3)C2)ccc1Nc1ncc2ccc(-c3ccccc3OC)n2n1` [Example 461, ((S)-1-{3-Methoxy-4-[7-(2-methoxy-phenyl)-pyrrolo[2,1-f][1,2,4]triazin-2-ylamino]-phenyl}-piperidin-3-yl)-(4-methyl-piperazin-1-yl)-methanone], the results for the IC50 at JAK2 and at ALK were 0.1 to 1 µM and < 0.1 µM, respectively.
In the same order, the values of `COc1cc(N2CCC[C@@H](C(=O)N3CCN(C)CC3)C2)ccc1Nc1ncc2ccc(-c3ccccc3N(C)S(C)(=O)=O)n2n1` [Example 462, N-[2-(2-{2-Methoxy-4-[(R)-3-(4-methyl-piperazine-1-carbonyl)-piperidin-1-yl]-phenylamino}-pyrrolo[2,1-f][1,2,4]triazin-7-yl)-phenyl]-N-methyl-methanesulfonamide] are 0.1 to 1 µM and < 0.1 µM.
In the same order, the values of `COc1cc(N2CCC[C@@H](C(=O)N3CCN(C)CC3)C2)ccc1Nc1ncc2ccc(-c3ccccc3OC)n2n1` [Example 463, ((R)-1-{3-Methoxy-4-[7-(2-methoxy-phenyl)-pyrrolo[2,1-f][1,2,4]triazin-2-ylamino]-phenyl}-piperidin-3-yl)-(4-methyl-piperazin-1-yl)-methanone] are 0.1 to 1 µM and < 0.1 µM.
In the same order, the values of `COc1ccc(-c2ccc3cnc(Nc4ccc(N5CCC[C@@H](C(=O)N6CCN(C)CC6)C5)cc4OC)nn23)cn1` [Example 464, ((R)-1-{3-Methoxy-4-[7-(6-methoxy-pyridin-3-yl)-pyrrolo[2,1-f][1,2,4]triazin-2-ylamino]-phenyl}-piperidin-3-yl)-(4-methyl-piperazin-1-yl)-methanone] are < 0.1 µM and 0.1 to 1 µM.
Regarding `COc1cc(N2CCC[C@H](CN3CCN(C)CC3)C2)ccc1Nc1ncc2ccc(-c3ccccc3N(C)S(C)(=O)=O)n2n1` [Example 465, N-[2-(2-{2-Methoxy-4-[(R)-3-(4-methyl-piperazin-1-ylmethyl)-piperidin-1-yl]-phenylamino}-pyrrolo[2,1-f][1,2,4]triazin-7-yl)-phenyl]-N-methyl-methanesulfonamide], the IC50 is 0.1 to 1 µM on JAK2 and < 0.1 µM on ALK.
Taken in the same sequence, the figures for `COc1cc(N2CCC[C@H](CN3CCN(C)CC3)C2)ccc1Nc1ncc2ccc(-c3ccccc3OC)n2n1` [Example 466, {2-Methoxy-4-[(R)-3-(4-methyl-piperazin-1-ylmethyl)-piperidin-1-yl]-phenyl}-[7-(2-methoxy-phenyl)-pyrrolo[2,1-f][1,2,4]triazin-2-yl]-amine] were 0.1 to 1 µM and < 0.1 µM.
For `COc1cc(N2CCC(CN3CCN(C)CC3)CC2)ccc1Nc1ncc2ccc(-c3ccccc3N(C)S(C)(=O)=O)n2n1` [Example 467, N-[2-(2-{2-Methoxy-4-[4-(4-methyl-piperazin-1-ylmethyl)-piperidin-1-yl]-phenylamino}-pyrrolo[2,1-f][1,2,4]triazin-7-yl)-phenyl]-N-methyl-methanesulfonamide], the IC50 at JAK2 was 0.1 to 1 µM; on ALK, < 0.1 µM.
Taken in the same sequence, the figures for `COc1cc(N2CCC(CN3CCN(C)CC3)CC2)ccc1Nc1ncc2ccc(-c3ccccc3OC)n2n1` [Example 468, {2-Methoxy-4-[4-(4-methyl-piperazin-1-ylmethyl)-piperidin-1-yl]-phenyl}-[7-(2-methoxy-phenyl)-pyrrolo[2,1-f][1,2,4]triazin-2-yl]-amine] were 0.1 to 1 µM and < 0.1 µM.
